Like-named read-outs stand apart in the source and are kept apart here.
Legend:
[1] = in vivo; cited from earlier work
[2] = tested on: intracranial gliomas; conditions: i.p.; cited from earlier work
[3] = tested on: 9L; type: cell-based; conditions: Rattus norvegicus, read-out: LD90 (the source's name)
[4] = tested on: 9L, F98, U373, H80, U87, D324 cell lines; test: In vitro efficacy of paclitaxel on several cell lines (clonogenic assay); type: cell-based, rat and human
[5] = maintenance of sufficient systemic levels; cited from earlier work
[6] = tested on: F98; type: cell-based; conditions: Rattus norvegicus, continuous 6-8 days exposure, read-out: LD90 (the source's name)
[7] = tested on: H80; type: cell-based; conditions: Homo sapiens; continuous 6-8 days exposure; read-out: LD90 (the source's name)
Protocol: (§1) Cell culture. Tumor sensitivity to paclitaxel was measured by the clonogenic assay described by Rosenblum, et al., Cancer 41:2305-2314 (1978) and Salcman, et al., Neurosurgery 29:526-531 (1991) with rat glioma (9L, F98), human glioma (H80, U87, U373), and human medulloblastoma (D324) cell lines. Cells were grown and propagated in minimum essential medium (MEM) supplemented with 10% fetal bovine serum, L-glutamine, penicillin, and streptomycin and incubated at 37° C. in an atmosphere containing 5% CO2. At the start of each assay, 600 tumor cells in 2 ml of medium were plated on Falcon 6-well tissue-culture plates (Becton-Dickenson, Lincoln Park, N.J.). After incubating for 24 h, the medium was removed from the places and replaced with 2 ml of medium containing paclitaxel and 0.1% dimethylsulfoxide (DMSO). The treatment solutions were prepared as described by Roytta et al., Prostate 11:95-106 (1987). The paclitaxel treatment solution was then either replaced with fresh paclitaxel-free media containing 0.1% DMSO after 1 or 24 h or was left on the places for the 6- to 8-day incubation period. […] The colonies on each plate were counted and the result was expressed as a percentage of the colonies formed on control plates not exposed to paclitaxel. […] Graphs were prepared and analyzed using Cricket Graph v. […]

[8] = tested on: U87; type: cell-based; conditions: Homo sapiens, U-87 MG; continuous 6-8 days exposure; read-out: LD90 (the source's name)
Protocol: as §1

[9] = tested on: 9L; test: Intracranial local drug delivery by polymer implant in rat glioma model, median survival (Table 1 summary); conditions: in vivo
[10] = human, in vivo; cited from earlier work
[11] = tested on: ovarian, breast, lung, and prostatic cancer and melanoma; conditions: cited from earlier work

CC(=O)O[C@H]1C(=O)[C@@]2(C)[C@H]([C@H](OC(=O)c3ccccc3)[C@]3(O)C[C@H](OC(=O)[C@H](O)[C@@H](NC(=O)c4ccccc4)c4ccccc4)C(C)=C1C3(C)C)[C@]1(OC(C)=O)CO[C@@H]1C[C@@H]2O [paclitaxel]
penetration of intact blood-brain barrier [1]: penetrates the intact blood-brain barrier poorly, if at all | increased survival from systemic intraperitoneal injections [2]: no increased survival | IC90 ([3]; 1 h, 1 h exposure): 890 nM | IC90 ([3]; 24 h, 24 h exposure): 100 nM | factor of potency increase in vitro ([4]; exposure for more than 24 h): two to four | concentration at which log cell kill occurred ([4]; rat and human brain-tumor cell lines): nanomolecular concentrations | amount required for log cell kill in rat lines relative to human lines ([4]; rat lines (9L, F98) vs human lines (U87, U373, H80), 6-8 days): four to ten | systemic toxicity [5]: severe, in some cases "life-threatening" toxicity | IC90 [6]: 25 nM | IC90 [7]: 19 nM | IC90 [8]: 9.1 nM | % increase survival [9]: 215% | Median survival in days, Rx group [9]: 61.5 | clearance [10]: extensive non-renal clearance | concentrations cytotoxic in vitro [11]: nanomolecular concentrations

Source: patent USRE37410E, “Controlled local delivery of chemotherapeutic agents for treating solid tumors” (priority 1999, dated 2001)
